Data: patent US8530446B2, “Oral composition containing difructose anhydride” (Fancl Corporation, priority 2004, dated 2013)

System: equol production in the intestinal tract
Experiment: Ability of DFA to increase equol production in the intestinal tract of rats (plasma equol by HPLC-UV)
Format: in vivo, Wistar-ST rats
Settings: 20 days
From the text: The ability of DFA to increase equol production in the intestinal tract was examined.
Twenty-seven male Wistar-ST rats (six weeks old) were raised with a solid feed for three days, after which they were divided into three groups by weight so that each group consisted of nine rats. Each group was given a base feed containing 0.25% of a food product containing 40% isoflavone (basal diet group), a feed consisting of the base feed whose sucrose was substituted by 3% with DFAIII (DFAIII group), or a feed consisting of the base feed whose sucrose was substituted by 3% with fructo-oligosaccharide (FOS group), and raised for twenty days. On day 20, blood was taken from each rat through the caudal vein and the equol level in blood plasma was measured using the HPLC-UV method.
In the table, a and b indicate that values denoted by different symbols have a significant difference between them.

OC[C@H]1O[C@@]2(CO[C@]3(CO)O[C@H](CO)[C@@H](O)[C@@H]3O2)[C@@H](O)[C@@H]1O [DFA, difructose anhydride]
Effect of ingestion on equol level in blood plasma (in words) (rats, 3% in isoflavone-containing feed): caused the equol level in blood plasma to rise

OC[C@H]1O[C@@]2(CO[C@]3(CO)O[C@H](CO)[C@@H](O)[C@@H]3O2)[C@@H](O)[C@@H]1O [DFAIII, difructose anhydride]
Equol (equol level in blood plasma) (male Wistar-ST rats, n=9/group, base feed with 0.25% of food product containing 40% isoflavone, sucrose substituted by 3% with test substance, caudal vein blood on day 20, HPLC-UV): 17.7 ± 1.81 µmol
